Three compounds from ChEMBL document CHEMBL3872258, “Challenges in the development of an M4 PAM in vivo tool compound: The discovery of VU0467154 and unexpected DMPK profiles of close analogs” (Bioorg Med Chem Lett, 2017) can be followed below.

Molecules are shown by their SMILES. pEC50, pIC50: −log10 of the molar value.

A word on the pIC50: it is −log10 of the IC50, conventionally taken in molar units. For orientation: pEC50 means the negative decadic logarithm of the EC50, by convention in mol/L. A word on the clearance: it is the volume of plasma or blood freed of the substance per unit of time. Read a high clearance as efficient removal. In general, Kp refers to the ratio of the level in a tissue or fluid to that in plasma or blood.

Data set [1] can be described thus: Inhibition of human adenosine transporter assessed as reduction in [3H]-adenosine uptake.
The target in data set [2] is T1, Muscarinic acetylcholine receptor M4 (Homo sapiens, UniProt P08173).
T1 sequence (P08173 whole entry): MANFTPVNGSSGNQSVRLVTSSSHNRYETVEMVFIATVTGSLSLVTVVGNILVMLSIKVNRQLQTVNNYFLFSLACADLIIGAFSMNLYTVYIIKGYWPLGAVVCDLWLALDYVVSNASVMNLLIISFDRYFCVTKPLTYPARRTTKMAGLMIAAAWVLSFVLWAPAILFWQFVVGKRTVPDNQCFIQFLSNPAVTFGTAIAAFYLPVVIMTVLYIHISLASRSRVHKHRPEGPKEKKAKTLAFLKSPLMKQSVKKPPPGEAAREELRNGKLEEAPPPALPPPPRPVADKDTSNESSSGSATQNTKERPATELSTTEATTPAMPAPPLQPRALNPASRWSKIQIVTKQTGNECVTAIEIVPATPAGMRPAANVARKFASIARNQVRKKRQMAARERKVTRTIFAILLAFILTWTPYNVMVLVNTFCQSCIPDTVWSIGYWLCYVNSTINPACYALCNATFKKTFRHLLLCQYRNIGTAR
Kind of data set: Positive allosteric modulation of human M4 receptor expressed in CHO cells co-expressing Gqui5 by calcium mobilization assay. Format: functional, cell-based. The settings on record: read-out: EC50.

Data set [3] is described as follows: Plasma clearance in Sprague-Dawley rat at 1 mg/kg, iv. Format: ADME, organism-based.
Data set [4] is described as follows: Ratio of total drug level in brain to plasma in Sprague-Dawley rat at 0.20 to 0.25 mg/kg, iv administered through cassette dosing after 0.25 hrs. Format: ADME, organism-based.
Data set [5] deals with Voltage-dependent L-type calcium channel subunit alpha-1C (Homo sapiens, UniProt Q13936). Kind of data set: Binding affinity to human Cav1.2 by radio-ligand binding assay.
Data set [6] can be described thus: Ratio of unbound concentration in brain to plasma in Sprague-Dawley rat at 0.20 to 0.25 mg/kg, iv administered through cassette dosing after 0.25 hrs. Format: ADME, organism-based.
For data set [7], the target named is Growth hormone secretagogue receptor type 1 (Homo sapiens, UniProt Q92847). Kind of data set: Inhibition of ghrelin receptor (unknown origin) by radioligand binding assay.
Data set [8] in a line: Binding affinity to rat brain GABA receptor by radio-ligand binding assay.

Chain of Voltage-dependent L-type calcium channel subunit alpha-1C (Q13936 whole entry): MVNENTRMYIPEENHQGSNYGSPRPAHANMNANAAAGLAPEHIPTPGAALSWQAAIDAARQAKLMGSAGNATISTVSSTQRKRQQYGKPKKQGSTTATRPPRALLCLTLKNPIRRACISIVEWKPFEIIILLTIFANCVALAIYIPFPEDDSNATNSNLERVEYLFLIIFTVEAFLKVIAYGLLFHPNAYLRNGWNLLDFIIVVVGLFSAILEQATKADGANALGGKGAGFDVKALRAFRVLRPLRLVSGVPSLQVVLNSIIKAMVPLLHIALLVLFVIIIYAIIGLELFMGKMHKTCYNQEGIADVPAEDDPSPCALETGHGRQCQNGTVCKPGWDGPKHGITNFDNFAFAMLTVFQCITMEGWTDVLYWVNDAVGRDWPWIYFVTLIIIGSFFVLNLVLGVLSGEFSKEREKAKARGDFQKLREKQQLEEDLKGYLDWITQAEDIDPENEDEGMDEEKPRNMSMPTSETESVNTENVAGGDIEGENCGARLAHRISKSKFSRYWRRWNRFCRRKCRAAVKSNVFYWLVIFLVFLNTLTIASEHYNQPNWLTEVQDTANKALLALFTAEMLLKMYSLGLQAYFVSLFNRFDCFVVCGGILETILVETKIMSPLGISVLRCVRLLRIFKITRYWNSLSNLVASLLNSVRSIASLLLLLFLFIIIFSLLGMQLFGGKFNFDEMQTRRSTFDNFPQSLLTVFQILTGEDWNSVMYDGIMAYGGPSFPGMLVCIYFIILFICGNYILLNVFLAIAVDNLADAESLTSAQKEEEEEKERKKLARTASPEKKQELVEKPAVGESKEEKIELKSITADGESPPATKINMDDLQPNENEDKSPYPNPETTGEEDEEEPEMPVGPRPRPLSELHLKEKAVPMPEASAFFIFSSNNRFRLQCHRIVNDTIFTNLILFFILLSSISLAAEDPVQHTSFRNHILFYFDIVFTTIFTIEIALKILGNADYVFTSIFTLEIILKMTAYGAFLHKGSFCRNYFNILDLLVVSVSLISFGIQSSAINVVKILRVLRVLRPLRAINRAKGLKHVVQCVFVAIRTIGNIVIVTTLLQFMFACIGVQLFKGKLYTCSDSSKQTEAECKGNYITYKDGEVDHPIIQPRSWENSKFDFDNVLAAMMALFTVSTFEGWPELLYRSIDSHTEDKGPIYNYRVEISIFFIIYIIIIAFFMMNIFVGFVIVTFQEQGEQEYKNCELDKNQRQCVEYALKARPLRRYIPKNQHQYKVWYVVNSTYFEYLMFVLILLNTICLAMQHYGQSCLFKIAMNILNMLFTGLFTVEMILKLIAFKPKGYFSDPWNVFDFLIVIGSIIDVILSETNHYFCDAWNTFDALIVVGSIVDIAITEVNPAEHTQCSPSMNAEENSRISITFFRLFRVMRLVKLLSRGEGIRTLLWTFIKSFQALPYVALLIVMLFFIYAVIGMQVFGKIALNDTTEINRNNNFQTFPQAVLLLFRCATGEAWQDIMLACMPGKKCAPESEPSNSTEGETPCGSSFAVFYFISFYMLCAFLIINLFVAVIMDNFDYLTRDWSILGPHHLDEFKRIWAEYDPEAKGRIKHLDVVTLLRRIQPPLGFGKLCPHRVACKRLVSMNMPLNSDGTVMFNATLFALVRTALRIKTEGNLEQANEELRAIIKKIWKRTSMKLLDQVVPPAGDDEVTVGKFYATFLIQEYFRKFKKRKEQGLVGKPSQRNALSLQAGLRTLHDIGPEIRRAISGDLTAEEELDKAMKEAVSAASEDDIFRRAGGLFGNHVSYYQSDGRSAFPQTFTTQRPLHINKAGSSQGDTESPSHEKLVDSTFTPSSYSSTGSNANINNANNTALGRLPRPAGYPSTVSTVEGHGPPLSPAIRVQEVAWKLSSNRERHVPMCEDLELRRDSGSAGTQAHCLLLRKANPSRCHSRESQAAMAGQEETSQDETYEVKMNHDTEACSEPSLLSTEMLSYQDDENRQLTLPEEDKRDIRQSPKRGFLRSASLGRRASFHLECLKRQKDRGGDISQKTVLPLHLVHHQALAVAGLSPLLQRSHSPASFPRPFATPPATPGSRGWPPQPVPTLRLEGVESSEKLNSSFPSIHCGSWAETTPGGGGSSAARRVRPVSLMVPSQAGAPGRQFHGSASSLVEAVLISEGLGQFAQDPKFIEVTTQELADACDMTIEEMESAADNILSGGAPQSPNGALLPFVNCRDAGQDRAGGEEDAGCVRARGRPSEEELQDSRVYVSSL
Chain of Growth hormone secretagogue receptor type 1 (Q92847 whole entry): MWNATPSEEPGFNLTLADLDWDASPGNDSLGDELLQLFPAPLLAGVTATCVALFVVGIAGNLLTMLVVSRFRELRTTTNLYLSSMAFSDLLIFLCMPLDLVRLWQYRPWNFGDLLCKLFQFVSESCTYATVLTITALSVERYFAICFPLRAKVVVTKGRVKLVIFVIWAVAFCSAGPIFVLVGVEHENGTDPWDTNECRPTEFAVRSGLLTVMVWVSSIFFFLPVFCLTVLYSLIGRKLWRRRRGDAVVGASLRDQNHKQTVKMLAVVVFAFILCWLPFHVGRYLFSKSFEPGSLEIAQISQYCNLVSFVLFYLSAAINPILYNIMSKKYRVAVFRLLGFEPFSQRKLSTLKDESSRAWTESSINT

On to `Cc1nnc2sc(C(=O)NCc3ccc(S(=O)(=O)C(F)(F)F)cc3)c(N)c2c1C`, for which, in data set [1], the pIC50 is 6.62.
Regarding `Cc1nnc2sc(C(=O)NCc3ccc(S(=O)(=O)C(F)F)cc3)c(N)c2c1C`, the pEC50 in data set [2] was 6.60. Moreover, the clearance in data set [3] was 16 mL/min/kg. Moreover, the Kp in data set [4] was 0.11. The pIC50 in data set [5] was 5.24. Also, in data set [6], the “K(p,uu,brain)” value stood at 0.1.
On to `Cc1nnc2sc(C(=O)NCc3ccc(S(F)(F)(F)(F)F)cc3)c(N)c2c1C`, for which the pEC50 in data set [2] was 6.26. Further, the clearance in data set [3] was 12 mL/min/kg. Besides, the values for the pIC50 in data set [7] and in data set [8] were 5.19 and 5.68, respectively. In data set [4], the Kp worked out at 1.4. Further, the “K(p,uu,brain)” value in data set [6] stood at 1.
